From US8916577B2, “Tricyclic derivatives, process for their preparation and their use as kinase inhibitors” (Nerviano Medical Sciences S.R.L., priority 2011, dated 2014)
pIC50: −log10 of the molar value. Counter-ions that a name gives are not always drawn.

Target: MPS1 (Homo sapiens (Human), UniProt P33981)
Assay: Biochemical assay for inhibitors of MPS1 kinase activity (33P-ATP trans-phosphorylation, Dowex)
Conditions: 5 nM MPS1, 15 microM ATP, P38-β-tide 200 microM
Description: Cloning, Expression and Purification of Recombinant MPS1 Full Length Protein.
MPS1 full length (corresponding to residues 2-857 of the full length sequence, see Swiss-Prot accession number P33981) was PCR amplified from the full-length human MPS1 gene present in house as clone pGEX4t_MPS1.
Baculoviruses were generated by cotransfecting Sf9 insect cells with the expression vector and the viral DNA using the BaculoGold® transfection kit (Pharmingen). Viral supernatant was recovered after 5 days and subjected to 3 rounds of amplification to increase viral titer. Recombinant protein was produced by infecting High5 insect cells. After 72 hours of infection at 21° C., cells were recovered, pelletted and freezed at −80° C. For purification of recombinant protein, pellet was thawed, resuspended in lysis buffer (PBS, NaCl 150 mM, Glycerol 10%, CHAPS 0.1%, DTT 20 mM, protease and phosphatase inhibitors) and lysed by Gaulin. Lysate was cleared by centrifugation and loaded on a GST affinity column. After extensive wash, recombinant protein was cleaved by a specific protease and eluted by incubation.
To get a fully activated enzyme, the protein was then subjected to auto-phosphorylation in presence of ATP 1 mM at 25° C. for 2 hours in kinase buffer (Hepes pH7.5 50 mM, MgCl2 2.5 mM, MnCl2 1 mM, DTT 1 mM, phosphatase inhibitors); ATP was then removed whit a desalting column.
Biochemical Assay for Inhibitors of MPS1 Kinase Activity
The inhibitory activity of putative kinase inhibitors and the potency of selected compounds were determined using a trans-phosphorylation assay.
Specific peptide or protein substrates are trans-phosphorylated by their specific ser-thr or tyr kinase in the presence of ATP traced with ^33P-γ-ATP, and in the presence of their own optimal buffer and cofactors.
At the end of the phosphorylation reaction, more than 98% unlabeled ATP and radioactive ATP is captured by an excess of the ion exchange dowex resin; the resin then settles down to the bottom of the reaction plate by gravity.
Supernatant is subsequently withdrawn and transferred into a counting plate, then evaluated by P-counting.
The buffer for MPS1 assay was composed of HEPES 50 mM, at pH 7.5, with 2.5 mM MgCl2, 1 mM MnCl2, 1 mM DTT, 3 microM Na3VO4, 2 mM P-glycerophosphate and 0.2 mg/mL BSA.
The assay was run with a final concentration MPS1 of 5 nM, in the presence of 15 microM ATP and 1.5 nM ^33P-γ-ATP; the substrate was P38-β-tide, used at 200 microM.
The test mix consisted of:
1) 3× Enzyme mix (done in Kinase Buffer 3×), 5 microL/well
2) 3× substrate and ATP mix (done in ddH2O), together with ^33P-γ-ATP, 5 microL/well
3) 3× test compounds (diluted into ddH2O—3% DMSO)—5 microL/well
a) for percent inhibition studies (HTS), individual dilution plates at 1 mM are diluted at a 3× concentration (30 microM) in ddH2O (3% DMSO=final concentration) using a Beckman NX automated pipetting platform. The same instrument is used for distributing the diluted mother plates into the test plates. b) for IC50 determination (KSS platform), 100 μl of each compound at 1 mM in 100% DMSO are transferred from the original plate into the first column of another 96 well plate (A1 to G1); well H1 is left empty for the internal standard inhibitor, usually staurosporine.
An automated station for serial dilutions (Biomek FX, Beckman) is used for producing 1:3 dilutions in 100% DMSO, from line A1 to A10, and for all the seven compounds in the column. Moreover, 4-5 copies of daughter plates are prepared by reformatting 5 microL of this first set of 100% DMSO dilution plates into 384 deep well-plates: one copy of the daughter plates with the serial dilutions of test compounds will be thaw the day of the experiments, reconstituted at a 3× concentration with water and used in the IC50 determination assays. In a standard experiment, the highest concentration (3×) of all compounds is 30 microM, while the lowest one is 1.5 nM. […]

Sequence of MPS1 (P33981 2-857): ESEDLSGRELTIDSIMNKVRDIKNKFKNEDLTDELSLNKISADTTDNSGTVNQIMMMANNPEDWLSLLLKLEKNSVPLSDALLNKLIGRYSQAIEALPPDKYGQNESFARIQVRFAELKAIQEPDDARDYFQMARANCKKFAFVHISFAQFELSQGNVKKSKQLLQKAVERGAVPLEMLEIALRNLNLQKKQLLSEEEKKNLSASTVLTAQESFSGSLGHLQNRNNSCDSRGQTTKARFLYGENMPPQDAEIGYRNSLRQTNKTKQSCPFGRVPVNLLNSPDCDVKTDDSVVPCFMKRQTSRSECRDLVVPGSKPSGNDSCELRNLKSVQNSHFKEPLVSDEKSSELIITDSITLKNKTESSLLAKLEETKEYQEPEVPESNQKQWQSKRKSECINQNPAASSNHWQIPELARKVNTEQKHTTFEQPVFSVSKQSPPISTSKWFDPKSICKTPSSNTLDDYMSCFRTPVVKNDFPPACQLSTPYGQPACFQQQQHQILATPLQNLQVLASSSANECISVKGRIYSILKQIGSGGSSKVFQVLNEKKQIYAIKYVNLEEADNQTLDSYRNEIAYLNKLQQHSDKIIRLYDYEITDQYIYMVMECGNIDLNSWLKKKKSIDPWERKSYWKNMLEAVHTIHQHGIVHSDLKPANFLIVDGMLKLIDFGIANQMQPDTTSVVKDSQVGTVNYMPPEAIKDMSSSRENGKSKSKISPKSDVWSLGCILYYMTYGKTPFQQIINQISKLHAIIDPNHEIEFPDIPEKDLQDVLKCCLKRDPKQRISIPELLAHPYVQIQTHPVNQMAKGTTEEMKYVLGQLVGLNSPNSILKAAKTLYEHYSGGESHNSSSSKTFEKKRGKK

| SMILES | pIC50 |
| --- | --- |
| COc1cc(Br)ccc1Nc1ncc2c(n1)-c1c(c(C(N)=O)nn1C)CCC2 [Compound 1, 9-[(4-bromo-2-methoxyphenyl)amino]-1-methyl-1,4,5,6-tetrahydropyrazolo[4′,3′:6,7]cyclohepta[1,2-d]pyrimidine-3-carboxamide] | 6.38 |
| CCc1cccc(CC)c1NC(=O)c1nn(C)c2c1CCCc1cnc(Nc3ccc(N4CCN(C)CC4)cc3OC)nc1-2 [Compound 4, N-(2,6-diethylphenyl)-9-{[2-methoxy-4-(4-methylpiperazin-1-yl)phenyl]amino}-1-methyl-1,4,5,6-tetrahydropyrazolo[4′,3′:6,7]cyclohepta[1,2-d]pyrimidine-3-carboxamide] | 6.74 |
| COc1cc(N2CCN(C)CC2)ccc1Nc1ncc2c(n1)-c1c(c(C(=O)Nc3ccccc3)nn1C)CCC2 [Compound 8, 9-{[2-methoxy-4-(4-methylpiperazin-1-yl)phenyl]amino}-1-methyl-N-phenyl-1,4,5,6-tetrahydropyrazolo[4′,3′:6,7]cyclohepta[1,2-d]pyrimidine-3-carboxamide] | 6.45 |
| CCc1cccc(C)c1NC(=O)c1nn(C)c2c1CCCc1cnc(Nc3ccc(N4CCN(C)CC4)cc3OC)nc1-2 [Compound 27, N-(2-ethyl-6-methylphenyl)-9-{[2-methoxy-4-(4-methylpiperazin-1-yl)phenyl]amino}-1-methyl-1,4,5,6-tetrahydropyrazolo[4′,3′:6,7]cyclohepta[1,2-d]pyrimidine-3-carboxamide] | 6.72 |
| COc1cc(N2CCN(C)CC2)ccc1Nc1ncc2c(n1)-c1c(c(C(=O)NC3CCCCC3)nn1C)CCC2 [Compound 28, N-cyclohexyl-9-{[2-methoxy-4-(4-methylpiperazin-1-yl)phenyl]amino}-1-methyl-1,4,5,6-tetrahydropyrazolo[4′,3′:6,7]cyclohepta[1,2-d]pyrimidine-3-carboxamide] | 6.60 |
| CNC(=O)c1nn(C)c2c1CCCc1cnc(Nc3ccc(Br)cc3OC)nc1-2 [Compound 32, 9-[(4-bromo-2-methoxyphenyl)amino]-N,1-dimethyl-1,4,5,6-tetrahydropyrazolo[4′,3′:6,7]cyclohepta[1,2-d]pyrimidine-3-carboxamide] | 6.56 |
| CCc1cccc(CC)c1NC(=O)c1nn(C)c2c1CCCc1cnc(Nc3ccc(C(=O)NC4CCN(C)CC4)cc3OC)nc1-2 [Compound 35, N-(2,6-diethylphenyl)-9-({2-methoxy-4-[(1-methylpiperidin-4-yl)carbamoyl]phenyl}amino)-1-methyl-1,4,5,6-tetrahydropyrazolo[4′,3′:6,7]cyclohepta[1,2-d]pyrimidine-3-carboxamide] | 7.18 |
| CCc1cccc(CC)c1NC(=O)c1nn(C)c2c1CCCc1cnc(Nc3ccc(C(=O)N4CCCN(C)CC4)cc3OC(F)(F)F)nc1-2 [Compound 43, N-(2,6-diethylphenyl)-1-methyl-9-({4-[(4-methyl-1,4-diazepan-1-yl)carbonyl]-2-(trifluoromethoxy)phenyl}amino)-1,4,5,6-tetrahydropyrazolo[4′,3′:6,7]cyclohepta[1,2-d]pyrimidine-3-carboxamide] | 6.70 |
| CCc1cccc(CC)c1NC(=O)c1nn(CC(F)(F)F)c2c1CCCc1cnc(Nc3ccc(N4CCN(C)CC4)cc3OC)nc1-2 [Compound 56, N-(2,6-diethylphenyl)-9-{[2-methoxy-4-(4-methylpiperazin-1-yl)phenyl]amino}-1-(2,2,2-trifluoroethyl)-1,4,5,6-tetrahydropyrazolo[4′,3′:6,7]cyclohepta[1,2-d]pyrimidine-3-carboxamide] | 6.06 |
| CCc1cccc(CC)c1NC(=O)c1nn(CCO)c2c1CCCc1cnc(Nc3ccc(N4CCC(N(C)C)CC4)cc3OC)nc1-2 [Compound 71, N-(2,6-diethylphenyl)-9-({4-[4-(dimethylamino)piperidin-1-yl]-2-methoxyphenyl}amino)-1-(2-hydroxyethyl)-1,4,5,6-tetrahydropyrazolo[4′,3′:6,7]cyclohepta[1,2-d]pyrimidine-3-carboxamide trifluoroacetate] | 6.76 |
| CCc1cccc(CC)c1NC(=O)c1c2c(nn1C)-c1nc(Nc3ccc(N4CCN(C)CC4)cc3OC)ncc1CCC2 [Compound 97, N-(2,6-diethylphenyl)-9-{[2-methoxy-4-(4-methylpiperazin-1-yl)phenyl]amino}-2-methyl-2,4,5,6-tetrahydropyrazolo[4′,3′:6,7]cyclohepta[1,2-d]pyrimidine-3-carboxamide] | 6.07 |
| CCc1cccc(CC)c1NC(=O)c1noc2c1CCCc1cnc(Nc3ccc(N4CCN(C)CC4)cc3OC)nc1-2 [Compound 99, N-(2,6-diethylphenyl)-9-{[2-methoxy-4-(4-methylpiperazin-1-yl)phenyl]amino}-5,6-dihydro-4H-isoxazolo[4′,5′:6,7]cyclohepta[1,2-d]pyrimidine-3-carboxamide] | 6.87 |
| CCc1cccc(CC)c1NC(=O)c1onc2c1CCCc1cnc(Nc3ccc(N4CCN(C)CC4)cc3OC)nc1-2 [Compound 101, N-(2,6-diethylphenyl)-9-{[2-methoxy-4-(4-methylpiperazin-1-yl)phenyl]amino}-5,6-dihydro-4H-isoxazolo[4′,3′:6,7]cyclohepta[1,2-d]pyrimidine-3-carboxamide] | 6.51 |
